In patent US20230117034A1, “PYRAZOLOTRIAZINES” (Bayer Aktiengesellschaft, priority 2019, published 2023):

How the values were obtained:
CDK9/CycT1 = biological target: T1, CDK9/CycT1 (Homo sapiens, UniProt P50750); assay: CDK9/CycT1 high ATP kinase assay (TR-FRET, 2 mM ATP); type: biochemical; conditions: 2 mM ATP (high ATP); median; read-out: CDK9/CyclinT1, 2 mM ATP (high ATP), IC50 (median)
T1 construct: Recombinant full-length His-tagged human CDK9 and CycT1; purchased Life Technologies PV4131; host or cells: insect cells
Procedure, shortened: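 Full-length His-tagged human CDK9/CycT1 (insect cell, ~0.5 μg/mL) preincubated 15 min at 22 °C with compound in Tris pH 8.0, MgCl2, DTT buffer before reaction with biotinylated peptide substrate at high ATP (2 mM).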

[1] = system: MDA-MB-231, human breast cancer cells; assay: Proliferation assay MDA-MB-231 (crystal violet, 4 days); type: cell-based; conditions: Homo sapiens, MDA-MB-231, 96 h, MDA-MB-231 cells, median, read-out: Prolif-MDA MB-231, IC50-[mol/l] (median)
Procedure, shortened: (§1)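 Following a 24 h attachment in 10% fetal calf serum medium, cells receive test substance over 0.01-10 µmol/L for 4 days. Dye retained by fixed cells is eluted and read at 595 nm; cell number change is referenced to day-0 and untreated wells.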

[2] = system: CAL-120, human breast adenocarcinoma cells; assay: Proliferation assay CAL-120 (crystal violet, 4 days); type: cell-based; conditions: Homo sapiens, CAL-120, 96 h, CAL-120 cells, median, read-out: Prolif-CAL-120, IC50-[mol/l] (median)
Procedure, shortened: as §1

T1 sequence (P50750 whole entry): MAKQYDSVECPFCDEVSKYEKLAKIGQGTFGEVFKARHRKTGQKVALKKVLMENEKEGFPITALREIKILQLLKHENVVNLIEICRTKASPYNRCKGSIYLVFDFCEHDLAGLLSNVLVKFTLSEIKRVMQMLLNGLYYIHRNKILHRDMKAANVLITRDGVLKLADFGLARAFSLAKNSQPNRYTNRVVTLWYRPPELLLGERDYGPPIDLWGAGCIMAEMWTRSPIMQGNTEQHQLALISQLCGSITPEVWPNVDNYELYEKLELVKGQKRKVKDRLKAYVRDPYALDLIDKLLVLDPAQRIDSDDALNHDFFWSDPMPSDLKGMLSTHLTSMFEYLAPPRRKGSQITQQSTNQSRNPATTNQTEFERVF
T1 sequence (O60563 whole entry partner): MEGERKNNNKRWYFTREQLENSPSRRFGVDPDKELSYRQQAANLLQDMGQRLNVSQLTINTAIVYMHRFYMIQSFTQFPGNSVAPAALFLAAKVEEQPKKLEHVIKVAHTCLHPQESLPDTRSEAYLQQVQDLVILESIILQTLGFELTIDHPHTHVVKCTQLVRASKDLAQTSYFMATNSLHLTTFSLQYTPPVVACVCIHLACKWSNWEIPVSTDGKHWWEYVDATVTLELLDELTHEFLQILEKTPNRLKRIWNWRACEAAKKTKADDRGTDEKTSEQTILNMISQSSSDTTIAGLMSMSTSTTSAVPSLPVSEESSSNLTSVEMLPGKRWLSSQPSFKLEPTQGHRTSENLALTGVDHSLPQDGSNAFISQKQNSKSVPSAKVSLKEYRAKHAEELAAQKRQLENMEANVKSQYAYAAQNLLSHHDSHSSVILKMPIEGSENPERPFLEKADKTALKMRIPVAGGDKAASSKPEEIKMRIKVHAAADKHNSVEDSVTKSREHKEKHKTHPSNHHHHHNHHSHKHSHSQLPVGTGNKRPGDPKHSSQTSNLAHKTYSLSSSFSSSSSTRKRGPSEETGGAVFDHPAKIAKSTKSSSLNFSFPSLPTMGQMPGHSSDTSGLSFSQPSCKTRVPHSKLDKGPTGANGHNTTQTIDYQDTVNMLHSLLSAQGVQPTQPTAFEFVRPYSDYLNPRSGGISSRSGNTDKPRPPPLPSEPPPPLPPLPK

Row | Structure (SMILES) | IC50 (CDK9/CycT1) [nM] | IC50 [1] [nM] | IC50 [2] [nM]
1 | Brc1cnn2c(NCc3nc4ccccc4[nH]3)nc(N3C[C@H]4CC[C@@H]3CO4)nc12 (single isomer, unassigned) [Example 383, N-[(1H-benzimidazol-2-yl)methyl]-8-bromo-2-{[1R or S-(1R*,4R*)]-2-oxa-5-azabicyclo[2.2.2]octan-5-yl}pyrazolo[1,5-a][1,3,5]triazin-4-amine] | > 20000 | 30 | 11.4
2 | CN1CCN(c2nc(NCc3nc4c(F)c(Cl)ccc4[nH]3)n3ncc(Br)c3n2)CC1 [Example 373, 8-bromo-N-[(5-chloro-4-fluoro-1H-benzimidazol-2-yl)methyl]-2-(4-methylpiperazin-1-yl)pyrazolo[1,5-a][1,3,5]triazin-4-amine] | 14400 | 3.33 | 1.93
3 | Brc1cnn2c(NCc3nc4ccccc4[nH]3)nc(N3CCN4CCC3CC4)nc12 [Example 349, N-[(1H-benzimidazol-2-yl)methyl]-8-bromo-2-(1,4-diazabicyclo[3.2.2]nonan-4-yl)pyrazolo[1,5-a][1,3,5]triazin-4-amine] | > 20000 | 12.9 | 3.76
4 | FC(F)(F)c1ccc2[nH]c(CNc3nc(N4CCOCC4)nc4c(C5CC5)cnn34)nc2c1 [Example 322, 8-cyclopropyl-2-(morpholin-4-yl)-N-{[5-(trifluoromethyl)-1H-benzimidazol-2-yl]methyl}pyrazolo[1,5-a][1,3,5]triazin-4-amine] | > 20000 | 8.85 | 7.97
5 | Cc1cc2nc(CNc3nc(N4CCN(C)CC4)nc4c(Br)cnn34)[nH]c2cc1C [Example 342, 8-bromo-N-[(5,6-dimethyl-1H-benzimidazol-2-yl)methyl]-2-(4-methylpiperazin-1-yl)pyrazolo[1,5-a][1,3,5]triazin-4-amine] | > 20000 | 1.97 | 1.52
6 | CN(CC(C)(C)O)c1nc(NCc2nc3cc(C(F)(F)F)ccc3[nH]2)n2ncc(Br)c2n1 [Example 345, 1-{[8-bromo-4-({[5-(trifluoromethyl)-1H-benzimidazol-2-yl]methyl}amino)pyrazolo[1,5-a][1,3,5]triazin-2-yl](methyl)amino}-2-methylpropan-2-ol] | 6240 | 3.44 | 3.05
7 | Cc1cc2nc(CNc3nc(N4CC5CCC(C4)N5)nc4c(C5CC5)cnn34)[nH]c2cc1C [Example 326, 8-cyclopropyl-2-(3,8-diazabicyclo[3.2.1]octan-3-yl)-N-[(5,6-dimethyl-1H-benzimidazol-2-yl)methyl]pyrazolo[1,5-a][1,5]triazin-4-amine] | 17000 | 1.57 | 1.25
8 | CN1CCCN(c2nc(NCc3nc4ccccc4[nH]3)n3ncc(Br)c3n2)CC1 [Example 390, N-[(1H-benzimidazol-2-yl)methyl]-8-bromo-2-(4-methyl-1,4-diazepan-1-yl)pyrazolo[1,5-a][1,3,5]triazin-4-amine] | > 20000 | 176 | 29.8
9 | CN1CCN(c2nc(NCc3nc4c(F)c(F)ccc4[nH]3)n3ncc(Cl)c3n2)CC1 [Example 358, 8-chloro-N-[(4,5-difluoro-1H-benzimidazol-2-yl)methyl]-2-(4-methylpiperazin-1-yl)pyrazolo[1,5-a][1,3,5]triazin-4-amine] | > 20000 | 14.8 | 4.05
10 | CN(CC(C)(C)O)c1nc(NCc2nc3c(F)c(Cl)ccc3[nH]2)n2ncc(C3CC3)c2n1 [Example 387, 1-[(4-{[(5-chloro-4-fluoro-1H-benzimidazol-2-yl)methyl]amino}-8-cyclopropylpyrazolo[1,5-a][1,3,5]triazin-2-yl)(methyl)amino]-2-methylpropan-2-ol] | 5930 | 4.57 | 4.95
11 | FC(F)(F)c1ccc2[nH]c(CNc3nc(N4CCOCC4)nc4c(Br)cnn34)nc2c1 [Example 339, 8-bromo-2-(morpholin-4-yl)-N-{[5-(trifluoromethyl)-1H-benzimidazol-2-yl]methyl}pyrazolo[1,5-a][1,3,5]triazin-4-amine] | 13800 | 7.45 | 4.79
12 | CN(CC(C)(C)O)c1nc(NCc2nc3cc(OC(F)(F)F)ccc3[nH]2)n2ncc(Br)c2n1 [Example 378, 1-{[8-bromo-4-({[5-(trifluoromethoxy)-1H-benzimidazol-2-yl]methyl}amino)pyrazolo[1,5-a][1,3,5]triazin-2-yl](methyl)amino}-2-methylpropan-2-ol] | 12700 | 96.4 | 41.5
13 | Fc1c(Cl)ccc2[nH]c(CNc3nc(N4CCOCC4)nc4c(Br)cnn34)nc12 [Example 372, 8-bromo-N-[(5-chloro-4-fluoro-1H-benzimidazol-2-yl)methyl]-2-(morpholin-4-yl)pyrazolo[1,5-a][1,3,5]triazin-4-amine] | 3930 | 4.28 | 2.94
14 | Fc1cccc(-c2nnc(CNc3nc(N4CCOCC4)nc4c(C(F)(F)F)cnn34)[nH]2)c1 [Example 385, N-{[5-(3-fluorophenyl)-4H-1,2,4-triazol-3-yl]methyl}-2-(morpholin-4-yl)-8-(trifluoromethyl)pyrazolo[1,5-a][1,3,5]triazin-4-amine] | 1290 | 43.8 | 25.9
15 | CN1CCN(c2nc(NCc3nc4c(F)cccc4[nH]3)n3ncc(Cl)c3n2)CC1.O=CO [Example 362, formic acid 8-chloro-N-[(4-fluoro-1H-benzimidazol-2-yl)methyl]-2-(4-methylpiperazin-1-yl)pyrazolo[1,5-a][1,3,5]triazin-4-amine] | > 20000 | 33.5 | 8.15
16 | Cc1ccnc2[nH]c(CNc3nc(N4CCOCC4)nc4c(C(C)C)cnn34)nc12 [Example 28, N-[(7-methyl-3H-imidazo[4,5-b]pyridin-2-yl)methyl]-2-(morpholin-4-yl)-8-(propan-2-yl)pyrazolo[1,5-a][1,3,5]triazin-4-amine] | > 20000 | 74.5 | 39.1
17 | CN1CCN(c2nc(NCc3nc4cc(Cl)c(Cl)cc4[nH]3)n3ncc(Br)c3n2)CC1 [Example 330, 8-bromo-N-[(5,6-dichloro-1H-benzimidazol-2-yl)methyl]-2-(4-methylpiperazin-1-yl)pyrazolo[1,5-a][1,3,5]triazin-4-amine] | > 20000 | 3.38 | 2.44
18 | CN1CCN(c2nc(NCc3nc4cc(F)c(F)cc4[nH]3)n3ncc(Br)c3n2)CC1 [Example 346, 8-bromo-N-[(5,6-difluoro-1H-benzimidazol-2-yl)methyl]-2-(4-methylpiperazin-1-yl)pyrazolo[1,5-a][1,3,5]triazin-4-amine] | > 20000 | 4.67 | 2.66
19 | Clc1cc2nc(CNc3nc(N4CCOCC4)nc4c(Br)cnn34)[nH]c2cc1Cl [Example 329, 8-bromo-N-[(5,6-dichloro-1H-benzimidazol-2-yl)methyl]-2-(morpholin-4-yl)pyrazolo[1,5-a][1,3,5]triazin-4-amine] | 13800 | 7.66 | 6.11
20 | CN(CC(C)(C)O)c1nc(NCc2nc3cc(F)c(Cl)cc3[nH]2)n2ncc(Br)c2n1 [Example 338, 1-[(8-bromo-4-{[(6-chloro-5-fluoro-1H-benzimidazol-2-yl)methyl]amino}pyrazolo[1,5-a][1,3,5]triazin-2-yl)(methyl)amino]-2-methylpropan-2-ol] | 8300 | 3.1 | 1.93
21 | Fc1cc2nc(CNc3nc(N4CCOCC4)nc4c(Br)cnn34)[nH]c2cc1F [Example 341, 8-bromo-N-[(5,6-difluoro-1H-benzimidazol-2-yl)methyl]-2-(morpholin-4-yl)pyrazolo[1,5-a][1,3,5]triazin-4-amine] | 17400 | 3.73 | < 0.1
22 | FC(F)(F)c1cnn2c(NCc3nc4cc(Cl)c(Cl)cc4[nH]3)nc(N3CCOCC3)nc12 [Example 332, N-[(5,6-dichloro-1H-benzimidazol-2-yl)methyl]-2-(morpholin-4-yl)-8-(trifluoromethyl)pyrazolo[1,5-a][1,3,5]triazin-4-amine] | > 20000 | 11.8 | 10.9
23 | FC(F)(F)c1ccc2[nH]c(CNc3nc(N4CC5CCC(C4)N5)nc4c(Br)cnn34)nc2c1 [Example 354, 8-bromo-2-(3,8-diazabicyclo[3.2.1]octan-3-yl)-N-{[5-(trifluoromethyl)-1H-benzimidazol-2-yl]methyl}pyrazolo[1,5-a][1,3,5]triazin-4-amine] | > 20000 | 3.05 | 2.8
24 | CC(C)c1cnn2c(NCc3ncc(-c4ccccc4)[nH]3)nc(N3CCN(C)CC3)nc12 [Example 31, 2-(4-methylpiperazin-1-yl)-N-[(5-phenyl-1H-imidazol-2-yl)methyl]-8-(propan-2-yl)pyrazolo[1,5-a][1,3,5]triazin-4-amine] | > 20000 | 49.8 | 21
25 | CN1CCN(c2nc(NCc3nc4cc(F)c(Cl)cc4[nH]3)n3ncc(Br)c3n2)CC1 [Example 337, 8-bromo-N-[(6-chloro-5-fluoro-1H-benzimidazol-2-yl)methyl]-2-(4-methylpiperazin-1-yl)pyrazolo[1,5-a][1,3,5]triazin-4-amine] | > 20000 | 2.45 | 2.04
